According to patent publication US20160193148A1, “LIPOSOMAL FORMULATIONS FOR THE TREATMENT OF BACTERIAL INFECTIONS” (UNIVERSITY OF GEORGIA RESEARCH FOUNDATION, INC., priority 2013, published 2016):
Several values for one entry are separate records, joined by “and”; a condition that tells them apart may be missing. Equal entries are not always repeated. Where two headings read alike, the source gives them in different places. Marks after values point to notes of the source that are not given here.

What was measured:
[1] = Plasma pharmacokinetics after single IV or nebulized dose in foals
Protocol: (§1) Eight healthy 5-7-week-old Quarter Horse foals were randomly assigned to one of 4 groups using a balanced Latin-square design. Foals were considered healthy on the basis of physical examinations, complete blood cell counts and plasma biochemical profiles. […] The liposome gentamicin formulation was nebulized using Nortev FLEXINEB. For each treatment, gentamicin was administered over a period of 15 minutes. There was a washout period of 7-14 days between each treatment.
(§2) For the BAL collection, foals were sedated with xylazine and butorphanol. Concentrations of gentamicin were measured in plasma and in bronchoalveolar cells using HPLC-MS.
(§3) Eight foals received a single IV or nebulized dose (6.6 mg/kg bwt) of FG^h or LG in a balanced Latin square design. Beginning at 5-7 weeks of age, every foal received each of the 4 possible drug-route combinations with a 14-day washout period between each administration. Intravenous FG and LG were diluted in 250 ml of sterile 0.9% saline and administered via a jugular catheter as a constant rate infusion over 15 min. Nebulized FG and LG were administered by inhalation over 15 minutes via a commercial equine nebulizer. To ensure equivalent rate of delivery, FG was diluted to the same volume as LG with sterile 0.9% saline. Particle size of nebulized LG was verified using laser diffraction. Blood samples for plasma separation were obtained from a catheter placed in the contralateral jugular vein prior to each drug administration, and at 5, 10, 20, 30, 45 minutes and 1, 1.5, 2, 3, 4, 6, 8, 12, 16, 24 and 48 hours after the end of the 15 minute IV infusion or nebulization period. Bronchoalveolar lavage (BAL) fluid was collected at 2, 4, 8, 24, and 48 hours. Foals were sedated with xylazine hydrochloride (0.5 mg/kg bwt IV) and butorphanol tartrate (0.07 mg/kg bwt IV) prior to collection of BAL fluid. Prior to analysis for gentamicin concentration, blood samples were centrifuged at 400×g for 10 minutes and the resultant plasma frozen at −80° C. until assayed.
Briefly, gentamicin was extracted from plasma (250 μl) and urine (500 μl) using protein precipitation with an equal volume of ice-cold 90:10 acetonitrile: 0.2% formic acid (v/v). Extracted samples were centrifuged (2° C. at 10,000×g for 10 min) twice. Two-hundred microliters of the supernatants were transferred to polypropylene inserts for injection. The supernatant derived from the lyzed BAL cell pellet was transferred to polypropylene inserts for direct injection without further processing. […] An aliquot of the resultant supernatant was then mixed with an equal volume of ice-cold acetonitrile, centrifuged (2° C. at 10,000×g for 10 minutes) and 200 μl was transferred to polypropylene inserts for injection. Calibration standards were prepared in drug-free foal plasma, BAL fluid or urine and then extracted as described above so that standard curves specific to each biologic matrix could be constructed. […] Analyte separation and LC-MS/MS measurement of gentamicin were performed exactly as described previously (Burton et al. (2013) Equine Vet J. 45, 507-511) except that BAL fluid samples, were introduced in the MS with a flow rate of 0.18 ml/minutes and a total run time of 8 minutes due to relatively low gentamicin concentration in those samples.
For each foal, plasma, PELF, and BAL cell concentration versus time data were analyzed using commercial software. Noncompartmental analysis was used for PELF and BAL cell data.

[2] = BAL cell gentamicin concentrations after single IV or nebulized dose in foals; conditions: BAL cells
Protocol: as §1, §2, §3
A 10 mm diameter, 2.4 m BAL catheter^k was passed via nasal approach until wedged into a bronchus. The lavage solution consisted of 4 aliquots of 60 ml 0.9% saline solution infused and instantly aspirated. Immediately upon collection, the total volume of BAL fluid recovered was measured and a 3 ml aliquot saved in an EDTA tube from which total nucleated cell count was determined by use of a cell counter.^1 BAL fluid was immediately centrifuged at 400×g for 10 min. The BAL cells in the resultant pellet were washed, re-suspended in 500 μl of acetonitrile: 0.2% formic acid (1:1, v/v), vortexed, and frozen at −80° C. until assayed. Supernatant BAL fluid was also frozen at −80° C. until assayed. Before assaying, the cell pellet samples were thawed, vortexed vigorously and sonicated for 10 minutes to ensure complete cell lysis. The resulting suspension was centrifuged at 500×g for 10 minutes and the supernatant fluid was used to determine the intracellular concentrations of gentamicin.
Briefly, gentamicin was extracted from plasma (250 μl) and urine (500 μl) using protein precipitation with an equal volume of ice-cold 90:10 acetonitrile: 0.2% formic acid (v/v). Extracted samples were centrifuged (2° C. at 10,000×g for 10 min) twice. Two-hundred microliters of the supernatants were transferred to polypropylene inserts for injection. The supernatant derived from the lyzed BAL cell pellet was transferred to polypropylene inserts for direct injection without further processing. […] An aliquot of the resultant supernatant was then mixed with an equal volume of ice-cold acetonitrile, centrifuged (2° C. at 10,000×g for 10 minutes) and 200 μl was transferred to polypropylene inserts for injection. Calibration standards were prepared in drug-free foal plasma, BAL fluid or urine and then extracted as described above so that standard curves specific to each biologic matrix could be constructed.

[3] = simulation, Burton et al. 2013, cited from earlier work
[4] = plasma, IV 6.6 mg/kg, 8 foals, Table 4
[5] = plasma, IV 6.6 mg/kg, 8 foals, listed as FG, 6.6 mg/kg

With gentamicin sulfate [Free Gentamicin] the “Plasma concentrations after nebulized administration” value ([1]; nebulized 6.6 mg/kg, at most time points) was 570 ng/mL, the “A (intercept of the distribution phase)” value ([1]; plasma, IV 6.6 mg/kg, 8 foals) was 53.24 ± 25.83 µg/mL and the AUC0-t ([1]; plasma, IV 6.6 mg/kg, 8 foals) was 96700 ± 63800 ng·h/mL. For the same substance, the “AUC0-∞” value ([1]; plasma, IV 6.6 mg/kg, 8 foals) was 98400 ± 64300 ng·h/mL, the “AUMC0-∞” value ([1]; plasma, IV 6.6 mg/kg, 8 foals) was 360.2 ± 364.0 μg · h^2/ml and the “B (intercept of the elimination phase)” value ([1]; plasma, IV 6.6 mg/kg, 8 foals) was 2.50 ± 1.50 µg/mL. For the same substance, the CL ([1]; plasma, IV 6.6 mg/kg, 8 foals) was 1.42 ± 0.615 mL/min/kg, the MRT ([1]; plasma, IV 6.6 mg/kg, 8 foals) was 3.18 ± 1.25 h and the “t1/2α (distribution half-life)” value ([1]; plasma, IV 6.6 mg/kg, 8 foals) was 0.97 ± 0.45. The “α (rate constant of the distribution phase)” value ([1]; plasma, IV 6.6 mg/kg, 8 foals) was 0.82 ± 0.28 h⁻¹, the “β (rate constant of the elimination phase)” value ([1]; plasma, IV 6.6 mg/kg, 8 foals) was 0.12 ± 0.04 h⁻¹ and the C0.5 h [1, 4] was 71780 ± 92140 ng/mL. For the same substance, the C48 h [1, 4] was 90 ± 90 ng/mL, the t1/2β ([1]; plasma, IV 6.6 mg/kg, 8 foals, Table 4, listed as FG, 6.6 mg/kg) was 6.2 ± 1.8 h and 6.20 ± 1.77 h and the C1 h [1, 5] was 32600 ± 25280 ng/mL. The C24 h [1, 5] was 250 ± 190 ng/mL, the C0.5 h ([1]; plasma, IV 6.6 mg/kg, Table 1) was 71800 ± 92100 ng/mL and the C48 h ([1]; plasma, IV 6.6 mg/kg, Table 1) was 100 ± 90 ng/mL. The t1/2β ([1]; plasma, IV 6.6 mg/kg, Table 1, 6.6 mg/kg) was 6.2 ± 1.8 h, the t1/2β ([1]; plasma, IV 6.6 mg/kg, Table 1, listed as free gentamicin, 6.6 mg/kg) was 6.2 ± 1.8 h and the AUC0-t ([2]; IV) was 58.9 ± 41.5^a μg · h/ml. The C24 h ([2]; IV) was 1500 ± 1230 ng/mL, the “Tmax (median and range)” value ([2]; IV) was 2 (2-8)^a h and the AUC0-24 ([2]; IV, Table 3) was 58900 ± 41500 ng·h/mL. For the same substance, the C48 h ([2]; IV, Table 3) was 0.5 ± 0.6 µg/mL, the Cmax ([2]; IV, Table 3) was 3.0 ± 1.7 µg/mL and the C48 h ([2]; IV, Table 5) was 0.47 ± 0.62^a μg/ml. The Cmax ([2]; IV, Table 5, listed as FG) was 3.0±1.7 μg/ml and 2.98 ± 1.67^a μg/ml, the AUC0-24 ([2]; N (nebulized), Table 3) was 37200 ± 18900 ng·h/mL and the C48 h ([2]; N (nebulized), Table 3) was 0.3 ± 0.2 µg/mL. For the same substance, the Cmax ([2]; N (nebulized), Table 3) was 1.5 ± 0.6 µg/mL, the AUC0-t ([2]; Neb) was 37.2 ± 19.0^a μg · h/ml and the C24 h ([2]; Neb) was 1010 ± 570 ng/mL. The “Tmax (median and range)” value ([2]; Neb) was 3 (2-48)^a h, the C48 h ([2]; Neb, Table 5) was 0.32 ± 0.23^a μg/ml and the Cmax ([2]; Neb, Table 5, listed as FG) was 1.5±0.6 μg/ml and 1.49 ± 0.57^a μg/ml. The “predicted plasma concentration 1 hour after IV administration” value ([3]; at 4 weeks of age) was 25.27 ± 9.52 µg/mL, the “predicted plasma concentration 24 hours after administration” value ([3]; at 4 weeks of age) was 0.20 ± 0.22 µg/mL and the “predicted plasma concentration 1 hour after IV administration” value ([3]; at 12 weeks of age) was 34.52 ± 14.11 µg/mL. The “predicted plasma concentration 24 hours after administration” value ([3]; at 12 weeks of age) was 0.26 ± 0.11 µg/mL.
